{
  "source": "patent US20220267754A1",
  "about": "“VECTOR-BASED MUTAGENESIS SYSTEM” (priority 2015, published 2022)",
  "key": {"E. coli": {"system": "E. coli", "conditions": "tabulated from Antimicrobial Index Knowledgebase; cited from earlier work"}, "[1]": {"system": "E. coli MG1655 ΔrecA::apra", "assay_type": "cell-based"}},
  "data": [
    {"compound": "CN[C@@H]1[C@H](O)[C@H](NC)[C@H]2O[C@@]3(O)C(=O)C[C@@H](C)O[C@H]3O[C@@H]2[C@H]1O", "note": "[spectinomycin]", "values": [
      {"measurement": "MIC", "setting": "E. coli", "result": "8 to 64", "unit": "µg/mL"}
    ]},
    {"compound": "CO[C@H]1/C=C/O[C@@]2(C)Oc3c(C)c(O)c4c(O)c(c(/C=N/N5CCN(C)CC5)c(O)c4c3C2=O)NC(=O)/C(C)=C\\C=C\\[C@H](C)[C@H](O)[C@@H](C)[C@@H](O)[C@@H](C)[C@H](OC(C)=O)[C@@H]1C", "note": "[rifampin]", "values": [
      {"measurement": "MIC", "setting": "E. coli", "result": "0.5 to 16", "unit": "µg/mL"}
    ]},
    {"compound": "CO/N=C(\\C(=O)N[C@@H]1C(=O)N2C(C(=O)O)=C(COC(C)=O)CS[C@H]12)c1csc(N)n1", "note": "[cefotaxime]", "values": [
      {"measurement": "MIC", "setting": "E. coli", "result": "0.016 to 0.25", "unit": "µg/mL"}
    ]},
    {"compound": "CCOS(C)(=O)=O", "note": "[EMS, ethyl methanesulfonate]", "values": [
      {"measurement": "fraction of cells resistant, CRB", "setting": "[1]", "result": "0.00E+00"},
      {"measurement": "fraction of cells resistant, CTX", "setting": "[1]", "result": "1.67E−07"},
      {"measurement": "fraction of cells resistant, FOS", "setting": "[1]", "result": "3.75E−04"},
      {"measurement": "fraction of cells resistant, KAN", "setting": "[1]", "result": "8.17E−04"},
      {"measurement": "fraction of cells resistant, MIX", "setting": "[1]", "result": "1.10E−04"},
      {"measurement": "fraction of cells resistant, RIF", "setting": "[1]", "result": "6.68E−05"},
      {"measurement": "fraction of cells resistant, SPC", "setting": "[1]", "result": "0.00E+00"},
      {"measurement": "fraction of cells resistant, STR", "setting": "[1]", "result": "1.33E−06"},
      {"measurement": "fraction of cells resistant, TET", "setting": "[1]", "result": "0.00E+00"}
    ]},
    {"compound": "CC1(C)S[C@@H]2[C@H](NC(=O)C(C(=O)O)c3ccccc3)C(=O)N2[C@H]1C(=O)O", "note": "(some centres unmarked) [carbenicillin]", "values": [
      {"measurement": "MIC", "setting": "E. coli", "result": "2 to 25", "unit": "µg/mL"}
    ]},
    {"compound": "C[C@@H]1O[C@@H]1P(=O)(O)O", "note": "[fosfomycin]", "values": [
      {"measurement": "MIC", "setting": "E. coli", "result": "0.125 to 8", "unit": "µg/mL"}
    ]},
    {"compound": "CCn1cc(C(=O)O)c(=O)c2cc(F)c(N3CCNCC3)cc21", "note": "[norfloxacin]", "values": [
      {"measurement": "MIC", "setting": "E. coli", "result": "0.016 to 0.125", "unit": "µg/mL"}
    ]},
    {"compound": "Cc1ncc([N+](=O)[O-])n1CCO", "note": "[metronidazole]", "values": [
      {"measurement": "MIC", "setting": "E. coli", "result": "8 to 32", "unit": "µg/mL"}
    ]},
    {"compound": "[H]/N=C(/N)N[C@H]1[C@H](O)[C@@H](O)[C@H](O[C@@H]2O[C@@H](C)[C@](O)(C=O)[C@H]2O[C@@H]2O[C@@H](CO)[C@H](O)[C@@H](O)[C@@H]2NC)[C@@H](N/C(N)=N\\[H])[C@@H]1O", "note": "[streptomycin]", "values": [
      {"measurement": "MIC", "setting": "E. coli", "result": "1 to 16", "unit": "µg/mL"}
    ]},
    {"compound": "Nc1ncc2[nH]cnc2n1", "note": "[2AP, 2-aminopurine]", "values": [
      {"measurement": "fraction of cells resistant, CRB", "setting": "[1]", "result": "1.17E−07"},
      {"measurement": "fraction of cells resistant, CTX", "setting": "[1]", "result": "2.80E−06"},
      {"measurement": "fraction of cells resistant, FOS", "setting": "[1]", "result": "4.83E−04"},
      {"measurement": "fraction of cells resistant, KAN", "setting": "[1]", "result": "1.53E−03"},
      {"measurement": "fraction of cells resistant, MIX", "setting": "[1]", "result": "2.03E−05"},
      {"measurement": "fraction of cells resistant, RIF", "setting": "[1]", "result": "1.03E−05"},
      {"measurement": "fraction of cells resistant, SPC", "setting": "[1]", "result": "2.50E−07"},
      {"measurement": "fraction of cells resistant, STR", "setting": "[1]", "result": "3.17E−07"},
      {"measurement": "fraction of cells resistant, TET", "setting": "[1]", "result": "0.00E+00"}
    ]}
  ]
}
